The term MIC denotes the smallest concentration in the dilution series that meets the test's criterion for growth inhibition. A higher MIC goes with a less susceptible organism.

Results on one compound are retold here after patent US20260138981A1, “DIHYDROFOLATE REDUCTASE INHIBITORS FOR ANTI-BIOTIC RESISTANT INFECTIONS” (THE TRUSTEES OF PRINCETON UNIVERSITY, priority 2022, published 2026).

In brackets after ≈: the same amount, converted by molar mass.

Holding throughout (format): cell-based
One assay concerns A. baumannii ATCC 17978. The assay is described as follows: MIC, WuXi, Mueller-Hinton Broth. Particulars: Acinetobacter baumannii, ATCC17978, performed by WuXi in Mueller-Hinton Broth. The protocol:
(§1) For MICs calculations performed by WuXi (Shanghai, China), MIC was calculated as the lowest concentration that inhibits visible growth after 18 hours. 4-8 bacterial colonies of strains of interest were vortexed in saline and adjusted to an OD600 of 0.2. Strains were diluted 1:200 into CAMHB media into 96-well plates. Antibiotics were serially diluted 1:3 in DMSO, and 1 μL of each dilution was added to bacteria. The plates were incubated for 18-20 hours at 37° C. before observation.

The test system of another assay is E. coli ATCC BAA-198. The assay is described as follows: MIC, WuXi, Mueller-Hinton Broth. Particulars: Escherichia coli, ATCCBAA198, performed by WuXi in Mueller-Hinton Broth. The procedure:
as §1

For the next assay, the system named is E. faecalis ATCC 51575. The assay is described as follows: MIC, WuXi, Mueller-Hinton Broth. The conditions noted are these: Enterococcus faecalis, ATCC51575, performed by WuXi in Mueller-Hinton Broth. The procedure: as §1
For a further assay, the system named is S. aureus NRS384. The assay is described as follows: MIC, WuXi, Mueller-Hinton Broth. Particulars: Staphylococcus aureus, performed by WuXi in Mueller-Hinton Broth. The protocol: as §1
For assay [1], the system named is S. typhimurium CMCC 50115. The assay is described as follows: MIC, WuXi, Mueller-Hinton Broth. The conditions noted are these: Salmonella enterica, performed by WuXi in Mueller-Hinton Broth. The protocol: as §1
In assay [2] the test system is P. aeruginosa PA14. The assay is described as follows: Colony forming units (CFU) counting after 4-hour treatment. Particulars: rich media, PA14, 2×MIC, CFU/mL. The procedure: Data points represent 3 biological replicates with 3 technical replicates. Mean±SD are shown.
P. aeruginosa PA14 overnight cultures were diluted 1:100 and grown to exponential phase (OD600=0.4-0.6). Cultures were diluted 1:10 and treated with antibiotic. At each time point, 150 μL of culture was removed, serial diluted 1:10 six times, and plated onto LB Agar plates. Plates were grown overnight at 37° C. after which visible colonies were counted. CFU/mL was reported from dilutions in which ˜10-100 single colonies were visible.

The test system of assay [3] is P. aeruginosa PA14. The assay is described as follows: Drug accumulation assay (intrabacterial drug metabolism, LC/MS). The conditions noted are these: PA14, 5 μM, compared with TMP. The procedure:
FIG. 1G provides intrabacterial drug metabolism (IBDM) of PA14 treated with 5 μM fluorofolin or trimethoprim. Samples were taken at time t=0, 30, 60, and 90 minutes. Data represent mean±SD of triplicate technical replicates.
FIG. 1H provides cumulative accumulation of drugs over 90 mins by AUC of IBDM curves. Data represent mean±SD of triplicate technical replicates. (P value≤0.0001) t-test using Prism 9.
Overnight PA14 cultures were back-diluted to early-mid exponential phase (OD600=0.4-0.6). The assay was initiated with treatment of the culture with either 5.0 μM fluorofolin or 5.0 μM trimethoprim. A DMSO treated culture was utilized as a control. […] The resulting cell lysate samples were analyzed utilizing verapamil as an internal standard. […]
Compound accumulation was realized using the selective ion monitoring (SIM) mode to quantify peak integration for a compound and the internal standard using their respective m/z values. Compound peaks were confirmed using a scanning mode that detected the compound peak using an m/z range of 100-1000. Peak area integration values were determined and a ratio of the peak area for the compound to the peak area for the verapamil internal standard was calculated and compound concentration was then determined from the compound calibration curve. […]

In assay [4] the test system is co-cultures of E. coli MG1655 and P. aeruginosa PA14. The assay is described as follows: Growth competition assay (co-culture). The conditions noted are these: 50 μg/mL fluorofolin, 1:1 inoculum, overnight, CFU. The protocol: FIG. 3C characterizes competition of P. aeruginosa PA14 and E. coli MG1655 in LB or TMI-supplemented LB media. PA14 and E. coli MG1655 were inoculated at a 1:1 ratio and grown overnight in the presence or absence of 50 μg/mL fluorofolin in each media condition. The following day CFU were counted on LB-agar or Pseudomonas selection agar plates to determine CFU/mL of each species. Data represent mean±SD of triplicate biological and triplicate technical replicates. P values were calculated using unpaired t-test using Prism 9 (P value≤0.001)
Overnight cultures of P. aeruginosa PA14 or E. coli MG1655 were diluted 1:150 into LB Broth in the presence of DMSO or 50 μg/mL fluorofolin with or without TMI supplementation and grown for 16 hours at 37° C. Cultures of each species were grown separately as well as being mixed 1:1. Cultures were plated onto LB Agar or Pseudomonas Selection Agar (Sigma-Aldrich 17208) and CFU counting was carried out as described above. To control for appropriate, Pseudomonas selection, E. coli MG1655 was plated onto Pseudomonas Selection Agar and an absence of colonies was observed. The number of colonies on Pseudomonas Selection Agar plates was reported as the CFU/mL of P. aeruginosa. To calculate CFU/mL of E. coli MG1655, CFU/mL were determined from LB Agar plates, and the CFU/mL of P. aeruginosa were subtracted from these values.

`Nc1nc(N)c2c(ccc3c2ccn3Cc2ccnc(F)c2)n1` [fluorofolin]: the MIC turned out to be 0.8 µg/mL (≈ 2.59 µM) in the assay on A. baumannii ATCC 17978; 7.11 µg/mL (≈ 23.1 µM) against E. coli ATCC BAA-198; 0.01 µg/mL (≈ 0.0324 µM) in the assay with E. faecalis ATCC 51575; 0.03 µg/mL (≈ 0.0973 µM) against S. aureus NRS384; 0.03 µg/mL (≈ 0.0973 µM) in assay [1]. Besides, the “type of antibacterial activity” value in the assay on P. aeruginosa PA14 [2] was “bacteriostatic”. Further, the “rate of accumulation in P. aeruginosa” value in the assay with P. aeruginosa PA14 [3] (0-90 min) was “more rapidly”. In the assay on P. aeruginosa PA14 [3] (over 90 mins), the “cumulative accumulation (AUC of IBDM curves)” value is on record as “higher levels”. In assay [4] (LB), the “effect on co-culture, absence of TMI supplementation” value is “effectively killed both E. coli and P. aeruginosa”. Further, the “effect on co-culture, presence of TMI supplementation” value in assay [4] (TMI-supplemented LB) is “selectively inhibited the growth of P. aeruginosa but not E. coli”.
